Measurements published in patent publication US7767704B2, “Antiviral 4-aminocarbonylamino-substituted imidazole compounds” (AiCuris GmbH & Co. KG, priority 2004, dated 2010).

Tests used:
[1] = Cytostatic effect on NHDF cells in the anti-HCMV cytopathogenicity test; format: cell-based; conditions: NHDF cells (human prepuce fibroblasts), 6 days incubation, visual assessment, concentration at which no visible cytostatic effects are evident
Description: (§1) Anti-HCMV (Anti-human Cytomegalovirus) Cytopathogenicity Tests
(§2) The test compounds are employed as 50 millimolar (mM) solutions in dimethyl sulphoxide (DMSO). Ganciclovir, foscarnet and cidofovir are used as reference compounds. After addition of in each case 2 μl of the 50, 5, 0.5 and 0.05 mM DMSO stock solutions to 98 μl portions of cell culture medium in row 2 A-H for duplicate determinations, 1:2 dilutions are carried out with 50 μl portions of medium up to row 11 of the 96-well plate. The wells in rows 1 and 12 each contain 50 μl of medium. 150 μl of a suspension of 1×10^4 cells (human prepuce fibroblasts [NHDF]) are pipetted into each of the wells (row 1=cell control) and, in rows 2-12, a mixture of HCMV-infected and uninfected NHDF cells (M.O.I.=0.001-0.002), i.e. 1-2 infected cells per 1000 uninfected cells. Row 12 (without substance) serves as virus control. The final test concentrations are 250-0.0005 μM. The plates are incubated at 37° C./5% CO2 for 6 days, i.e. until all the cells are infected in the virus controls (100% cytopathogenic effect [CPE]). The wells are then fixed and stained by adding a mixture of formalin and Giemsa's dye (30 minutes), washed with double-distilled water and dried in a drying oven at 50° C. The plates are then assessed visually using an overhead microscope (plaque multiplier from Technomara).
(§3) The following data can be acquired from the test plates: • CC50 (NHDF)=substance concentration in μM at which no visible cytostatic effects on the cells are evident by comparison with the untreated cell control; • EC50 (HCMV)=substance concentration in […] which inhibits the CPE (cytopathic effect) by 50% compared with the untreated virus control; • SI (selectivity index)=CC50 (NHDF)/EC50 (HCMV).

HCMV = experiment: Anti-HCMV (anti-human cytomegalovirus) cytopathogenicity test; format: cell-based; conditions: Human betaherpesvirus 5, 144 h; HCMV-infected NHDF cells, M.O.I. 0.001-0.002, 6 days; inhibition of CPE by 50% vs untreated virus control
Description: as §1, §2, §3

SMILES	EC50 (HCMV) [nM]	CC50 at 6 days [1] [nM]
O=C(Nc1ccc(OC(F)(F)F)cc1)Nc1cn(Cc2ccc(C(F)(F)F)cc2)c(C(=O)NCCO)n1 [Example 124, N-(2-Hydroxyethyl)-4-[({[4-(trifluoromethoxy)phenyl]amino}carbonyl)amino]-1-[4-(trifluoromethyl)benzyl]-1H-imidazole-2-carboxamide]	1.4	9400
O=C(Nc1ccc(OC(F)(F)F)cc1)Nc1cn(Cc2ccc(C(F)(F)F)cc2)c(C(=O)NCCOC(=O)CN2CCOCC2)n1 [Example 139]	2.8	4700
COc1ccc(CNC(=O)c2nc(NC(=O)Nc3ccc(OC(F)(F)F)cc3)cn2CC2CC2)cc1 [Example 32]	1	3130

Further lines, with some results ahead:

EC50 (HCMV) [nM]	SMILES	CC50 at 6 days [1] [nM]
1.9	Cn1cc(NC(=O)Nc2ccc(OC(F)(F)F)cc2)nc1C(=O)NCCCC(F)(F)F [Example 152, 1-Methyl-N-(4,4,4-trifluorobutyl)-4-[({[4-(trifluoromethoxy)phenyl]amino}carbonyl)amino]-1H-imidazole-2-carboxamide]	31000
0.5	COc1ccc(C(C)NC(=O)c2nc(NC(=O)Nc3ccc(C)c(F)c3)cn2C)cn1 (stereo not shown) [Example 2, 4-({[(3-Fluoro-4-methylphenyl)amino]carbonyl}amino)-N-[1-(6-methoxypyridin-3-yl)ethyl]-1-methyl-1H-imidazole-2-carboxamide]	94000
1	COCCOCCCNC(=O)c1nc(NC(=O)Nc2ccc(Cl)cc2C)cn1CC=C(C)C [Example 25]	6250
1	Cc1cc(Cl)ccc1NC(=O)Nc1cn(CC2CC2)c(C(=O)NCCCn2cccn2)n1 [Example 11]	25000
3	Cc1cc(Cl)ccc1NC(=O)Nc1cn(CC2CC2)c(C(=O)NCCCN2CCOCC2)n1 [Example 3, 4-({[(4-Chloro-2-methylphenyl)amino]carbonyl}amino)-1-(cyclopropylmethyl)-N-(3-morpholin-4-ylpropyl)-1H-imidazole-2-carboxamide]	25000
